According to US20060264410A1, “19,26,27-trinor-1alpha,25-dihydroxyvitamin D3 compounds” (Wisconsin Alumni Research Foundation, priority 2005, published 2006):
“Also recorded” adds a separate entry of the source.

Legend:
vitamin D receptor = molecular target: T1, vitamin D receptor (Homo sapiens, UniProt P11473); conditions: from '352, '861 and '622 patents; cited from earlier work
T1 sequence (P11473 1-427): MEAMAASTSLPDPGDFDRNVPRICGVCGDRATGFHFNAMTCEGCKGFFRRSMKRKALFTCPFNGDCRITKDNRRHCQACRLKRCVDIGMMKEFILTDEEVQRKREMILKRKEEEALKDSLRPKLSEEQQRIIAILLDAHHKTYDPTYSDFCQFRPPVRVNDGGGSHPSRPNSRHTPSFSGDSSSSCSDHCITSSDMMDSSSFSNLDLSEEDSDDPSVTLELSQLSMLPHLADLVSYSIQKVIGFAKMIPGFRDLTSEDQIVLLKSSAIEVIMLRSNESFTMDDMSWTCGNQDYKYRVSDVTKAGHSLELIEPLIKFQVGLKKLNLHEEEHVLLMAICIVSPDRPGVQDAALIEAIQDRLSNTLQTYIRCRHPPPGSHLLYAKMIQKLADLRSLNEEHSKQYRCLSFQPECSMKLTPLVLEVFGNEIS

cell differentiation = conditions: prior art; cited from earlier work
[1] = prior art; b9 values compared to 1α,25-dihydroxyvitamin D3; cited from earlier work
[2] = molecular target: T2, full-length recombinant rat vitamin D receptor (Rattus norvegicus, UniProt P13053); experiment: Vitamin D receptor binding, competition with [3H]-1,25-(OH)2-D3; conditions: FIGS. 1 and 2
T2 construct: Full-length recombinant rat receptor was expressed in E. coli BL21(DE3) Codon Plus RIL cells; histidine tag (C); made in house; host or cells: E. coli BL21(DE3) Codon Plus RIL
T2 sequence (P13053 1-423): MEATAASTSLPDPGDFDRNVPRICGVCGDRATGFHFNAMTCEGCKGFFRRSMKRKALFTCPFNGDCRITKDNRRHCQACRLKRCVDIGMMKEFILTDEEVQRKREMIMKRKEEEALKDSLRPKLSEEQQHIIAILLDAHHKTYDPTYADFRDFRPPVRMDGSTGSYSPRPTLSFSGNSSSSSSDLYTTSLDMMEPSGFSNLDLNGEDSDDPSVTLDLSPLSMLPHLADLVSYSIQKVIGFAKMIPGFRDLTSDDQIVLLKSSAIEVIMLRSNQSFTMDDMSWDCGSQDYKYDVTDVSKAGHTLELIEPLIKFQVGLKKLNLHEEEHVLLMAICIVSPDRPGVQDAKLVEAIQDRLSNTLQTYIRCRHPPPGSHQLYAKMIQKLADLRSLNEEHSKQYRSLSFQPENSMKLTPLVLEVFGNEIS
Method: Full-length recombinant rat receptor was expressed in E. coli BL21(DE3) Codon Plus RIL cells and purified to homogeneity using two different column chromatography systems. The first system was a nickel affinity resin that utilizes the C-terminal histidine tag on this protein. The protein that was eluted from this resin was further purified using ion exchange chromatography (S-Sepharose Fast Flow). Aliquots of the purified protein were quick frozen in liquid nitrogen and stored at −80° C. until use. For use in binding assays, the protein was diluted in TEDK50 (50 mM Tris, 1.5 mM EDTA, pH 7.4, 5 mM DTT, 150 mM KCl) with 0.1% Chaps detergent. The receptor protein and ligand concentration was optimized such that no more than 20% of the added radiolabeled ligand was bound to the receptor.
Unlabeled ligands were dissolved in ethanol and the concentrations determined using UV spectrophotometry (1,25(OH)2D3: molar extinction coefficient=18,200 and λmax=265 nm; Analogs: molar extinction coefficient=42,000 and λmax=252 nm). Radiolabeled ligand (^3H-1,25(OH)2D3, ˜159 Ci/mmol) was added in ethanol at a final concentration of 1 nM.
Radiolabeled and unlabeled ligands were added to 100 mcl of the diluted protein at a final ethanol concentration of ≦10%, mixed and incubated overnight on ice to reach binding equilibrium. The following day, 100 mcl of hydroxylapatite slurry (50%) was added to each tube and mixed at 10-minute intervals for 30 minutes. The hydroxylapaptite was collected by centrifugation and then washed three times with Tris-EDTA buffer (50 mM Tris, 1.5 mM EDTA, pH 7.4) containing 0.5% Titron X-100. After the final wash, the pellets were transferred to scintillation vials containing 4 mL of Biosafe II scintillation cocktail, mixed and placed in a scintillation counter. Total binding was determined from the tubes containing only radiolabeled ligand.

HL-60 cells = experiment: HL-60 differentiation (nitro blue tetrazolium reduction); type: cell-based, Human; conditions: FIG. 3
Method: The study drugs were dissolved in ethanol and the concentrations determined using UV spectrophotometry. Serial dilutions were prepared so that a range of drug concentrations could be tested without changing the final concentration of ethanol (≦0.2%) present in the cell cultures.
Human promyelocytic leukemia (HL60) cells were grown in RPMI-1640 medium containing 10% fetal bovine serum. The cells were incubated at 37° C. in the presence of 5% CO2.
HL60 cells were plated at 1.2×10^5 cells/mL. Eighteen hours after plating, cells in duplicate were treated with drug. Four days later, the cells were harvested and a nitro blue tetrazolium reduction assay was performed (Collins et al., 1979; J. Exp. Med. 149:969-974). The percentage of differentiated cells was determined by counting a total of 200 cells and recording the number that contained intracellular black-blue formazan deposits. Verification of differentiation to monocytic cells was determined by measuring phagocytic activity (data not shown).

[3] = tested on: 24-hydroxylase (24Ohase) gene promoter; experiment: In vitro transcription assay (luciferase reporter in ROS 17/2.8 cells); type: cell-based; conditions: 24Ohase promoter-luciferase, FIG. 4
Method: Transcription activity was measured in ROS 17/2.8 (bone) cells that were stably transfected with a 24-hydroxylase (24Ohase) gene promoter upstream of a luciferase reporter gene (Arbour et al., 1998). Cells were given a range of doses. Sixteen hours after dosing the cells were harvested and luciferase activities were measured using a luminometer. RLU=relative luciferase units.

[4] = Bone calcium mobilization (serum calcium); type: in vivo, Sprague-Dawley rats; conditions: rats, four ip doses, even at 7,020 pmol/day; FIGS. 5 and 7
Method: (§1) Male, weanling Sprague-Dawley rats were placed on Diet 11 (Suda et al. J. Nutr. 100:1049, 1970) (0.47% Ca) diet+vitamins AEK for one week followed by Diet 11 (0.02% Ca)+AEK for 3 weeks. The rats were then switched to a diet containing 0.47% Ca for one week followed by two weeks on the diet containing 0.02% Ca. Dose administration began during the last week on 0.02% calcium diet. Four consecutive ip doses were given approximately 24 hours apart. Twenty-four hours after the last dose, blood was collected from the severed neck and the concentration of serum calcium determined as a measure of bone calcium mobilization. The first 10 cm of the intestine was also collected for intestinal calcium transport analysis using the everted gut sac method.

[5] = Intestinal calcium transport (everted gut sac method); type: in vivo, Sprague-Dawley rats; conditions: rats, four ip doses; FIGS. 6 and 8
Method: as §1

Compound | binding activity to the vitamin D receptor (vitamin D receptor) | cell differentiation activity (cell differentiation) | calcemic / calcium mobilizing activity [1] | activity in binding to the vitamin D receptor compared with 1α,25-dihydroxyvitamin D3 [2] | activity in inducing differentiation of HL-60 cells compared with 1α,25-dihydroxyvitamin D3 (HL-60 cells) | activity in causing transcription compared with 1α,25-dihydroxyvitamin D3 [3] | calcemic activity measured by bone calcium mobilization [4] | intestinal calcium transport [5]
1α-hydroxy-2-methylene-19-nor-(20S)-homopregnacalciferol | relatively high binding activity | relatively high cell differentiation activity | little if any calcemic activity | – | – | – | – | –
1α-hydroxy-2-methylene-19-nor-bishomopregnacalciferol | relatively high binding activity | relatively high cell differentiation activity | little if any calcemic activity | – | – | – | – | –
C[C@H](CCCC(C)(C)O)[C@H]1CC[C@H]2/C(=C/C=C3C[C@@H](O)C[C@H](O)C3)CCC[C@]12C [1α,25-dihydroxy-19-nor-vitamin D3] | – | high potency | very low calcium mobilizing activity | – | – | – | – | –
C=C1[C@H](O)CC(=C/C=C2\CCC[C@]3(C)[C@@H](CC)CC[C@@H]23)C[C@H]1O [1α-Hydroxy-2-methylene-19-nor-pregnacalciferol] | relatively high binding activity | relatively high cell differentiation activity | little if any calcemic activity | – | – | – | – | –
C=C1[C@H](O)CC(=C/C=C2\CCC[C@]3(C)[C@@H]([C@@H](C)CCCCO)CC[C@@H]23)C[C@H]1O [BM, 2-methylene-19,26,27-trinor-(20S)-1α,25-dihydroxyvitamin D3] | – | – | – | slightly less active | only slightly less active; also recorded: about the same activity | slightly less activity | no calcemic activity | do not elevate intestinal calcium transport
CC(CCCCO)C1CCC2C(=CC=C3CC(O)C(C)C(O)C3)CCCC21C [P10, 2α-methyl-19,26,27-trinor-(20S)-1α,25-dihydroxyvitamin D3] | – | – | – | slightly more active | less activity | slightly less activity | no calcemic activity | do not elevate intestinal calcium transport
CC1[C@H](O)CC(=C/C=C2\CCC[C@]3(C)[C@@H]([C@@H](C)CCCCO)CC[C@@H]23)C[C@H]1O (stereo partly drawn) [T-74, 2β-methyl-19,26,27-trinor-(20S)-1α,25-dihydroxyvitamin D3] | – | – | – | significantly less active | significantly less activity | significantly less activity | no calcemic activity | do not elevate intestinal calcium transport
